Results published in patent US3939270A, “Pharmaceutical preparations containing α-aminopenicillins” (priority 1970, dated 1976).
In brackets after ≈: the same amount, converted by molar mass.

Assays:
[1] = hydrolysis of esters in phosphate buffer; type: in vitro ADME; conditions: pH 7.4, 10 μg/ml, 30 min, 37°C, corrected for blank, read-out: % hydrolyzed after 30 min at 37°C, phosphate buffer
Description: (§1) The hydrolysis of the esters of the aminopenicillins prepared according to the invention were determined in buffer solution with and without human serum being present. The esters were incubated for 30 min at 37°C at a concentration of 10 μg/ml in Sorensen's phosphate buffer (pH 7.4) and in another experiment in the same buffer containing 10 % human serum. The test solutions were extracted with ethyl acetate to remove unhydrolyzed ester and were analyzed microbiologically for their contents of aminopenicillin. Blank values were obtained by dissolving the esters in phosphate buffer at the same concentration and immediately perform the extraction. The values in the table are corrected for the blank values.

[2] = hydrolysis of esters in phosphate buffer + 10% human serum; type: in vitro ADME; conditions: buffer with 10% serum; pH 7.4, 10% human serum, 10 μg/ml, 30 min, 37°C, corrected for blank; read-out: % hydrolyzed after 30 min at 37°C, phosphate buffer + 10% human serum
Description: as §1

Staph. aureus Oxford [3] = assay: growth inhibition of Staph. aureus Oxford (Examples); type: cell-based; conditions: for MIC: Staphylococcus aureus, read-out: inhibited the growth of Staph. aureus Oxford at a concentration of
P.mirabilis = assay: antibacterial activity, tube dilution procedure in broth, P. mirabilis; type: cell-based; conditions: Proteus mirabilis
Excerpt: (§2) (termination of concentration according to the hydroxamate method; antibacterial activity determined by tube dilution procedure in broth).

E.coli [4] = assay: antibacterial activity, tube dilution procedure in broth, E. coli; type: cell-based; conditions: Escherichia coli
Excerpt: as §2

Staph.aur. Oxford = assay: antibacterial activity, tube dilution procedure in broth, Staph. aureus Oxford; type: cell-based; conditions: Staphylococcus aureus
Excerpt: as §2

Staph. aureus Oxford [5] = assay: growth inhibition of Staph. aureus Oxford, solution test on agar; type: cell-based; conditions: Staphylococcus aureus, read-out: inhibited the growth of Staph. Aureus Oxford at a concentration of
Description: (§3) The product inhibited the growth of Staph. Aureus Oxford at a concentration of 0.13 μg/ml and of E.coliat 125 μg/ml (solution test on agar) and contained in its IR-spectrum a strong absorption band at 1750 cm^-^1 showing presence of a β-lactame and an ester function.

E.coli [6] = assay: growth inhibition of E. coli, solution test on agar; type: cell-based; conditions: Escherichia coli, read-out: inhibited the growth of E.coli at
Description: as §3

[7] = human, in vivo, po, 480 min
Description: The oral absorption of 1'-ethoxycarbonyloxyethyl 6-(D-α-aminophenylacetamino)penicillanate (I) and of 1'-acetoxyethyl6-(D-α-aminophenylacetamido)penicillanate (II) was studied in a cross-over experiment in 9 healthy male volunteers using 6-(D-α-aminophenylacetamido)penicillanic acid (ampicillin) as a reference. The compounds were administered in tablets with the following composition:
The amounts of the esters correspond to 250 mg of free ampicillin. The reference compound was given in a commercially available tablet (Doktacillin 0.25 g) containing 250 mg of free ampicillin. The tablets were taken on an empty stomach. Blood samples were drawn at preset intervals and analyzed for their contents of ampicillin using a microbiological essay. The following mean serum levels (in μg/ml) with standard error of the mean were found:
The mean cumulative urinary excretions after 8 hours in percentage of the dose given were: […]

P. mirabilis = assay: growth inhibition of P. mirabilis (Example 7a); type: cell-based; conditions: Proteus mirabilis; read-out: inhibited the growth of P. mirabilis at
E. coli = assay: growth inhibition of E. coli (Example 7a); type: cell-based; conditions: Escherichia coli; read-out: inhibited the growth of E. coli at
[8] = background statement on α-aminobenzylpenicillin; cited from earlier work

Compound | degraded at 0.5 h [1] | metabolised at 0.5 h [2] | MIC (Staph. aureus Oxford [3]) | further results
CC(OC(=O)C(C)C)OC(=O)[C@@H]1N2C(=O)[C@@H](NC(=O)[C@H](N)c3ccccc3)[C@H]2SC1(C)C (stereo partly drawn) [10 --CH--OCOCH(CH3)2, 1'-isobutyroxy-ethyl 6-(D-α-aminophenylacetamido)penicillanate] | 5.2% | 12.1% | – | –
CCOC(=O)OC(C)OC(=O)[C@@H]1N2C(=O)[C@@H](NC(=O)[C@H](N)c3ccc(F)cc3)[C@H]2SC1(C)C (stereo partly drawn) [Example 25, 1'-Ethyloxycarbonyloxyethyl 6-(D-α-amino-p-fluorophenylacetamido)penicillanate] | 1.4% | 20.2% | 0.25 µg/mL (≈ 0.517 µM) | –
CC(=O)OC(C)OC(=O)[C@@H]1N2C(=O)[C@@H](NC(=O)C(N)c3ccc(Cl)cc3)[C@H]2SC1(C)C (stereo partly drawn) [Example 26, 1'-Acetoxyetyl 6-(α-amino-p-chlorophenylacetamido)penicillanate] | 10.8% | 15.6% | 0.63 µg/mL (≈ 1.34 µM) | –
CCCOC(=O)OCOC(=O)[C@@H]1N2C(=O)[C@@H](NC(=O)[C@H](N)c3ccccc3)[C@H]2SC1(C)C [Example 18, Propoxycarbonyloxymethyl 6-(D-α-aminophenylacetamido) penicillanate] | 14.5% | 53.7% | 0.05 µg/mL (≈ 0.107 µM) | –
CC(C)OC(=O)OCOC(=O)[C@@H]1N2C(=O)[C@@H](NC(=O)[C@H](N)c3ccccc3)[C@H]2SC1(C)C [Example 19, Isopropoxycarbonyloxymethyl 6-(D-α-aminophenylacetamido)penicillanate] | 15.2% | 68.4% | 0.05 µg/mL (≈ 0.107 µM) | –
CCOC(=O)OCOC(=O)[C@@H]1N2C(=O)[C@@H](NC(=O)[C@H](N)c3ccccc3)[C@H]2SC1(C)C [Example 17, Ethoxycarbonyloxymethyl 6-(D-α-aminophenylacetamido) penicillanate] | 13.3% | 64.7% | 0.05 µg/mL (≈ 0.111 µM) | –
CCOC(=O)NCOC(=O)[C@@H]1N2C(=O)[C@@H](NC(=O)[C@H](N)c3ccccc3)[C@H]2SC1(C)C [Ethylcarbamatomethylester, ethoxycarbonylaminomethyl 6-(D-α-aminophenylacetamido)penicillanate] | 7.1% | 15.2% | – | MIC (P.mirabilis): 6.25 µg/mL (≈ 13.9 µM); MIC (E.coli [4]): 12.5 µg/mL (≈ 27.7 µM); MIC (Staph.aur. Oxford): 0.16 µg/mL (≈ 0.355 µM)
CC(=O)OC(C)OC(=O)[C@@H]1N2C(=O)[C@@H](NC(=O)[C@H](N)c3ccc(O)cc3)[C@H]2SC1(C)C (stereo partly drawn) [Example 27, 1'-Acetoxyethyl 6-(D-α-amino-p-hydroxyphenylacetamido)penicillanate] | 2.5% | 6.8% | 0.25 µg/mL (≈ 0.554 µM) | –
CCOC(=O)OC(C)OC(=O)[C@@H]1N2C(=O)[C@@H](NC(=O)[C@H](N)c3cccc(F)c3)[C@H]2SC1(C)C (stereo partly drawn) [Example 23, 1'-Ethyloxycarbonyloxyethyl 6-(D-α-amino-m-fluorophenylacetamido)penicillanate] | 2.6% | 37.7% | – | –
CCOC(=O)OC(C)OC(=O)[C@@H]1N2C(=O)[C@@H](NC(=O)[C@H](N)c3ccccc3)[C@H]2SC1(C)C (stereo partly drawn) [Example 15, 1'-Ethoxycarbonyloxyethyl 6-(D-α-aminophenylacetamido) penicillanate] | 3.8% | 57.1% | 0.13 µg/mL (≈ 0.279 µM) | MIC (Staph. aureus Oxford [5]): 0.13 µg/mL (≈ 0.279 µM); MIC (E.coli [6]): 125 µg/mL (≈ 269 µM); mean cumulative urinary excretion after 8 hours in percentage of the dose given [7]: 53.4 ± 2.5%
CC(=O)OC(C)OC(=O)[C@@H]1N2C(=O)[C@@H](NC(=O)[C@H](N)c3cccc(F)c3)[C@H]2SC1(C)C (stereo partly drawn) [Example 22, 1'-acetoxy-ethyl 6-(D-α-amino-m-fluorophenylacetamido) penicillanate] | 3.1% | 16.4% | 0.25 µg/mL (≈ 0.551 µM) | –
COC(=O)OCOC(=O)[C@@H]1N2C(=O)[C@@H](NC(=O)[C@H](N)c3ccccc3)[C@H]2SC1(C)C [Example 12, Methoxycarbonyloxymethyl 6-(D-α-aminophenylacetamido) penicillanate] | 24.8% | 77.9% | 0.13 µg/mL (≈ 0.297 µM) | MIC (P.mirabilis): 6.25 µg/mL (≈ 14.3 µM); MIC (E.coli [4]): 25 µg/mL (≈ 57.1 µM); MIC (Staph.aur. Oxford): 0.16 µg/mL (≈ 0.366 µM)
CC(=O)OC(C)OC(=O)[C@@H]1N2C(=O)[C@@H](NC(=O)[C@H](N)c3ccccc3)[C@H]2SC1(C)C (stereo partly drawn) [Example 7, 1'-Acetoxyethyl 6-(D-α-aminophenylacetamido)penicillanate] | 7% | 17% | 0.32 µg/mL (≈ 0.735 µM) | inhibited the growth of Staph. aureus Oxford at a concentration of (Staph. aureus Oxford [3]; listed as Example 7b): 0.25 µg/mL; MIC (P. mirabilis): 50 µg/mL (≈ 115 µM); mean cumulative urinary excretion after 8 hours in percentage of the dose given [7]: 53.7 ± 4.9%; MIC (E. coli): 50 µg/mL (≈ 115 µM)
CCCCOC(=O)OCOC(=O)[C@@H]1N2C(=O)[C@@H](NC(=O)[C@H](N)c3ccccc3)[C@H]2SC1(C)C [Example 20, Butoxycarbonyloxymethyl 6-(D-α-aminophenylacetamido) penicillanate] | 13% | 41.1% | 0.05 µg/mL (≈ 0.104 µM) | –
CCCCC(=O)OC(C)OC(=O)[C@@H]1N2C(=O)[C@@H](NC(=O)[C@H](N)c3ccccc3)[C@H]2SC1(C)C (stereo partly drawn) [10 --CH--OCOC4 H9, 1'-valeryloxy-ethyl 6-(D-α-aminophenylacetamido)penicillanate] | 4.9% | 14.3% | – | –
CC(=O)OC(C)OC(=O)[C@@H]1N2C(=O)[C@@H](NC(=O)[C@H](N)c3ccc(F)cc3)[C@H]2SC1(C)C (stereo partly drawn) [Example 24, 1'-Acetoxyethyl 6-(D-α-amino-p-fluorophenylacetamido)penicillanate] | 9% | 14.3% | 0.25 µg/mL (≈ 0.551 µM) | –
CCC(=O)OC(C)OC(=O)[C@@H]1N2C(=O)[C@@H](NC(=O)[C@H](N)c3ccccc3)[C@H]2SC1(C)C (stereo partly drawn) [Example 9, 1'-Propionyloxyethyl 6-(D-α-aminophenylacetamido) penicillanate] | 6.8% | 17.6% | 0.63 µg/mL (≈ 1.4 µM) | –
CC(=O)OC(C)OC(=O)[C@@H]1N2C(=O)[C@@H](NC(=O)C(N)c3ccoc3)[C@H]2SC1(C)C (stereo partly drawn) [Example 29, 1'-Acetoxyethyl 6-(α-amino-3-furylacetamido)penicillanate] | 3.5% | 12.4% | 0.63 µg/mL (≈ 1.48 µM) | –
CC(=O)OC(C)OC(=O)[C@@H]1N2C(=O)[C@@H](NC(=O)C(N)CCC(C)C)[C@H]2SC1(C)C (stereo partly drawn) [Example 5, 1'-Acetoxyethyl α-amino-δ-methylpentylpenicillinate] | 6% | 15.3% | 0.63 µg/mL (≈ 1.47 µM) | –
CC1(C)S[C@@H]2[C@H](NC(=O)[C@H](N)c3ccccc3)C(=O)N2[C@H]1C(=O)O [Ampicillin, 6-(D-α-aminophenylacetamido)penicillanic acid] | – | – | – | oral absorption [8]: orally absorbed relatively incompletely
CCOC(=O)OC(C)OC(=O)[C@@H]1N2C(=O)[C@@H](NC(=O)[C@H](N)c3ccc(O)cc3)[C@H]2SC1(C)C (stereo partly drawn) [Example 28, 1'-Ethoxycarbonyloxyethyl 6-(D-α-amino-p-hydroxyphenylacetamido)penicillanate] | 5% | 33.1% | 0.25 µg/mL (≈ 0.519 µM) | –
